Data from publication PMC9658817, “Design, Synthesis, and Mechanistic Study of 2-Pyridone-Bearing Phenylalanine Derivatives as Novel HIV Capsid Modulators” (Molecules, 2022).
In brackets after ≈: the same amount, converted by molar mass. Where two headings read alike, the source gives them in different places.

What was measured:
MT-4 cells = test: Cytotoxicity in mock-infected MT-4 cells (MTT assay); assay type: cell-based; conditions: uninfected (mock-infected) MT-4 cells, viability reduced by 50%
Procedure: (§1) The antiviral activities and cytotoxicities of the target compounds were tested using MT-4 cells infected by HIV-1 IIIB or HIV-2 ROD. […] PF74 was utilized as the control drug in this assay.

HIV-2 ROD = test: Anti-HIV-2 activity in MT-4 cells (MTT assay); assay type: cell-based; conditions: Human immunodeficiency virus 2, MT4, 120 h, read-out: EC50 HIV-2 ROD
Procedure: as §1

HIV-1 IIIB = test: Anti-HIV-1 activity in MT-4 cells (MTT assay); assay type: cell-based; conditions: Human immunodeficiency virus 1, IIIB, MT4, 120 h, read-out: EC50 HIV-1 IIIB
Procedure: as §1

[1] = Water solubility assay in phosphate buffer (HPLC); assay type: physicochemical; conditions: for solubility: aqueous buffer, thermodynamic from solid, HPLC; for water solubility compared with PF74: in words, relative to PF74
Procedure: To test the changes in water solubility when two more amides or its mimics were introduced to the target compounds, which may lower the solubility of the target compounds, we performed water solubility assays (Table 2). […] Therefore, we cannot calculate its water solubility. It was illustrated that the solubility of compounds varied greatly under different pH. […] We weighed about 1mg of the compound, dissolved it with 1ml of methanol, and diluted it in gradient (twice each time) to obtain 10 concentrations. The peak area of the compound was tested by HPLC, and the peak area- concentration standard curve was drawn. In addition, about 1 mg, 0.6 mg and 0.3 mg of the compound were weighed and dissolved in 1 mL of pH 2, pH 7 and pH 7.4 phosphate buffer to obtain the saturated solution of the compound. HPLC was used to test the peak area under different pH, and the water solubility of the compound was obtained through the standard curve.

HIV = tested on: HIV; parameters: method as in PMID 32612233; conditions: MT-4 cells; read-out: EC50 antiviral activity; cited from earlier work
[2] = Cytotoxicity in mock-infected MT-4 cells (MTT assay); assay type: cell-based; conditions: human, mock-infected (uninfected) MT-4 cells, uninfected (mock-infected) MT-4 cells, viability reduced by 50%
Procedure: as §1

[3] = MT-4 cells, 50% protection against HIV-induced cytopathic effect, MTT, five days after infection
[4] = phosphate buffer pH 2, saturated solution, read-out: Solubility pH 2
[5] = phosphate buffer pH 7, saturated solution, read-out: Solubility pH 7
[6] = phosphate buffer pH 7.4, saturated solution, read-out: Solubility pH 7.4

For COc1ccc(N(C)C(=O)[C@H](Cc2ccccc2)NC(=O)Cn2ccc(NC(=O)c3ccc(C#N)cc3)cc2=O)cc1 [TD-1j, (S)-4-cyano-N-(1-(2-((1-((4-methoxyphenyl)(methyl)amino)-1-oxo-3-phenylpropan-2-yl)amino)-2-oxoethyl)-2-oxo-1,2-dihydropyridin-4-yl)benzamide], the CC50 (MT-4 cells) was 137 ± 22.5 µM, the EC50 (HIV-2 ROD; [3]) was 17.8 ± 2.79 µM and the EC50 (HIV-1 IIIB; [3]) was 16.8 ± 0.78 µM.
For COC(=O)c1ccc(C(=O)Nc2ccn(CC(=O)N[C@@H](Cc3ccccc3)C(=O)N(C)c3ccc(OC)cc3)c(=O)c2)cc1 [TD-1i, methyl (S)-4-((1-(2-((1-((4-methoxyphenyl)(methyl)amino)-1-oxo-3-phenylpropan-2-yl)amino)-2-oxoethyl)-2-oxo-1,2-dihydropyridin-4-yl)carbamoyl)benzoate], the CC50 (MT-4 cells) was 96.2 ± 19.8 µM, the EC50 (HIV-2 ROD; [3]) was 15.2 ± 0.55 µM and the EC50 (HIV-1 IIIB; [3]) was 19.1 ± 5.08 µM.
COc1ccc(N(C)C(=O)[C@H](Cc2ccccc2)NC(=O)Cn2ccc(NC(=O)c3cccc(F)c3)cc2=O)cc1 [TD-1c, (S)-3-fluoro-N-(1-(2-((1-((4-methoxyphenyl)(methyl)amino)-1-oxo-3-phenylpropan-2-yl)amino)-2-oxoethyl)-2-oxo-1,2-dihydropyridin-4-yl)benzamide] gave a CC50 (MT-4 cells) of 61.6 ± 8.44 µM, an EC50 (HIV-2 ROD; [3]) of 6.59 ± 1.63 µM and an EC50 (HIV-1 IIIB; [3]) of 18.9 ± 2.66 µM.
In the case of COc1ccc(N(C)C(=O)[C@H](Cc2ccccc2)NC(=O)Cn2ccc(NC(=O)c3ccc([N+](=O)[O-])cc3)cc2=O)cc1 [TD-1l, (S)-N-(1-(2-((1-((4-methoxyphenyl)(methyl)amino)-1-oxo-3-phenylpropan-2-yl)amino)-2-oxoethyl)-2-oxo-1,2-dihydropyridin-4-yl)-4-nitrobenzamide], the CC50 (MT-4 cells) is reported as 31.9 ± 1.73 µM, the EC50 (HIV-2 ROD; [3]) is reported as greater than 31.9 µM and the EC50 (HIV-1 IIIB; [3]) is reported as greater than 31.9 µM.
Work on COc1ccc(N(C)C(=O)[C@H](Cc2ccccc2)NC(=O)Cn2ccc(NC(=O)c3ccc(N)cc3)cc2=O)cc1 [TD-1m, (S)-4-amino-N-(1-(2-((1-((4-methoxyphenyl)(methyl)amino)-1-oxo-3-phenylpropan-2-yl)amino)-2-oxoethyl)-2-oxo-1,2-dihydropyridin-4-yl)benzamide] yielded a CC50 (MT-4 cells) of 189 ± 2.19 µM, an EC50 (HIV-2 ROD; [3]) of 17.1 ± 2.49 µM and an EC50 (HIV-1 IIIB; [3]) greater than 189 µM.
In the case of COc1ccc(C(=O)Nc2ccn(CC(=O)N[C@@H](Cc3ccccc3)C(=O)N(C)c3ccc(OC)cc3)c(=O)c2)cc1 [TD-1h, (S)-4-methoxy-N-(1-(2-((1-((4-methoxyphenyl)(methyl)amino)-1-oxo-3-phenylpropan-2-yl)amino)-2-oxoethyl)-2-oxo-1,2-dihydropyridin-4-yl)benzamide], the CC50 (MT-4 cells) is reported as 53.1 ± 5.12 µM, the EC50 (HIV-2 ROD; [3]) is reported as 10.7 ± 3.66 µM and the EC50 (HIV-1 IIIB; [3]) is reported as 29.6 ± 4.34 µM.
With COc1ccc(N(C)C(=O)[C@H](Cc2ccccc2)NC(=O)Cn2ccc(NC(=O)c3ccc(Br)cc3)cc2=O)cc1 [TD-1f, (S)-4-bromo-N-(1-(2-((1-((4-methoxyphenyl)(methyl)amino)-1-oxo-3-phenylpropan-2-yl)amino)-2-oxoethyl)-2-oxo-1,2-dihydropyridin-4-yl)benzamide] the CC50 (MT-4 cells) was 23.5 ± 2.79 µM, the EC50 (HIV-2 ROD; [3]) was greater than 23.5 µM and the EC50 (HIV-1 IIIB; [3]) was greater than 23.5 µM.
In the case of COc1ccc(N(C)C(=O)[C@H](Cc2cc(F)cc(F)c2)NC(=O)Cn2ccc(N)cc2=O)cc1 [FTC-2, (S)-2-(2-(4-amino-2-oxopyridin-1(2H)-yl)acetamido)-3-(3,5-difluorophenyl)-N-(4-methoxyphenyl)-N-methylpropanamide], the solubility [1, 4] is reported as 367 ± 58.4 µg/mL (≈ 779 µM), the solubility [1, 5] is reported as 261 ± 130 µg/mL (≈ 555 µM) and the solubility [1, 6] is reported as 437 ± 51.9 µg/mL (≈ 928 µM). For the same molecule, the “water solubility compared with PF74” value [1] was “improved by a factor of hundreds”, the CC50 (MT-4 cells) was greater than 266 µM and the EC50 (HIV-2 ROD; [3]) was 15.6 ± 1.06 µM. For the same molecule, the EC50 (HIV-1 IIIB; [3]) was 5.36 ± 0.98 µM.
In the case of COc1ccc(N(C)C(=O)[C@H](Cc2ccccc2)NC(=O)Cn2ccc(NC(=O)c3ccccc3F)cc2=O)cc1 [TD-1d, (S)-2-fluoro-N-(1-(2-((1-((4-methoxyphenyl)(methyl)amino)-1-oxo-3-phenylpropan-2-yl)amino)-2-oxoethyl)-2-oxo-1,2-dihydropyridin-4-yl)benzamide], the CC50 (MT-4 cells) is reported as 81.4 ± 22.7 µM, the EC50 (HIV-2 ROD; [3]) is reported as 7.92 ± 0.83 µM and the EC50 (HIV-1 IIIB; [3]) is reported as 17.9 ± 2.68 µM.
COc1ccc(N(C)C(=O)[C@H](Cc2ccccc2)NC(=O)Cn2ccc(NC(=O)c3ccccc3)cc2=O)cc1 [TD-1a, (S)-N-(1-(2-((1-((4-methoxyphenyl)(methyl)amino)-1-oxo-3-phenylpropan-2-yl)amino)-2-oxoethyl)-2-oxo-1,2-dihydropyridin-4-yl)benzamide] showed a solubility [1, 4] of 2.69 ± 0.52 µg/mL (≈ 4.99 µM), a solubility [1, 5] of 5.07 ± 2.6 µg/mL (≈ 9.41 µM) and a solubility [1, 6] of 8.66 ± 0.41 µg/mL (≈ 16.1 µM). For the same molecule, the “water solubility compared with PF74” value [1] was “moderately increased”, the CC50 (MT-4 cells) was 86.5 ± 29.2 µM and the EC50 (HIV-2 ROD; [3]) was 4.86 ± 1.71 µM. The EC50 (HIV-1 IIIB; [3]) was 16.8 ± 0.91 µM.
For COc1ccc(N(C)C(=O)[C@H](Cc2ccccc2)NC(=O)Cn2ccc(N)cc2=O)cc1 [TC-2, (S)-2-(2-(4-amino-2-oxopyridin-1(2H)-yl)acetamido)-N-(4-methoxyphenyl)-N-methyl-3-phenylpropanamide], the CC50 (MT-4 cells) was 261 ± 33.1 µM, the EC50 (HIV-2 ROD; [3]) was 19.7 ± 6.42 µM and the EC50 (HIV-1 IIIB; [3]) was 29.1 ± 4.23 µM.
COc1ccc(N(C)C(=O)[C@H](Cc2ccccc2)NC(=O)Cn2ccc(NC(=O)c3ccc(Cl)cc3)cc2=O)cc1 [TD-1e, (S)-4-chloro-N-(1-(2-((1-((4-methoxyphenyl)(methyl)amino)-1-oxo-3-phenylpropan-2-yl)amino)-2-oxoethyl)-2-oxo-1,2-dihydropyridin-4-yl)benzamide] showed a CC50 (MT-4 cells) of 25.5 ± 2.9 µM, an EC50 (HIV-2 ROD; [3]) greater than 25.5 µM and an EC50 (HIV-1 IIIB; [3]) greater than 25.5 µM.
For CC(C)(C#Cc1ccc(-c2ccc(Cl)c3c(NS(C)(=O)=O)nn(CC(F)(F)F)c23)c([C@H](Cc2cc(F)cc(F)c2)NC(=O)Cn2nc(C(F)(F)F)c3c2C(F)(F)[C@@H]2C[C@H]32)n1)S(C)(=O)=O [GS-6207], the EC50 (HIV) is given as 0.000105 µM.
In the case of COc1ccc(N(C)C(=O)[C@H](Cc2ccccc2)NC(=O)Cn2ccc(NC(=O)c3ccc4ccccc4c3)cc2=O)cc1 [TD-1k, (S)-N-(1-(2-((1-((4-methoxyphenyl)(methyl)amino)-1-oxo-3-phenylpropan-2-yl)amino)-2-oxoethyl)-2-oxo-1,2-dihydropyridin-4-yl)-2-naphthamide], the CC50 (MT-4 cells) is reported as 27.6 ± 3.18 µM, the EC50 (HIV-2 ROD; [3]) is reported as greater than 27.6 µM and the EC50 (HIV-1 IIIB; [3]) is reported as greater than 27.6 µM.
With Cc1[nH]c2ccccc2c1CC(=O)NC(Cc1ccccc1)C(=O)N(C)c1ccccc1 (stereo not drawn) [PF74, reference compound] the solubility [1, 4] was less than 1.12 µg/mL, the solubility [1, 5] was 1.44 ± 0.1 µg/mL (≈ 3.38 µM) and the solubility [1, 6] was 1.91 ± 0.56 µg/mL (≈ 4.49 µM). It also gave a CC50 at 5 days [2] greater than 294 µM, an EC50 (HIV-2 ROD) of 5.76 ± 2.14 µM and an EC50 (HIV-1 IIIB) of 1.08 ± 0.24 µM.
COc1ccc(N(C)C(=O)[C@H](Cc2ccccc2)NC(=O)Cn2ccc(NC(=O)c3ccc(C)cc3)cc2=O)cc1 [TD-1g, (S)-N-(1-(2-((1-((4-methoxyphenyl)(methyl)amino)-1-oxo-3-phenylpropan-2-yl)amino)-2-oxoethyl)-2-oxo-1,2-dihydropyridin-4-yl)-4-methylbenzamide] gave a CC50 (MT-4 cells) of 58.3 ± 4.85 µM, an EC50 (HIV-2 ROD; [3]) of 20.5 ± 8.49 µM and an EC50 (HIV-1 IIIB; [3]) of 25.6 ± 7.51 µM.
Molecule COc1ccc(N(C)C(=O)[C@H](Cc2ccccc2)NC(=O)Cn2ccc(NC(=O)c3ccc(F)cc3)cc2=O)cc1 [TD-1b, (S)-4-fluoro-N-(1-(2-((1-((4-methoxyphenyl)(methyl)amino)-1-oxo-3-phenylpropan-2-yl)amino)-2-oxoethyl)-2-oxo-1,2-dihydropyridin-4-yl)benzamide] has a CC50 (MT-4 cells) of 34.8 ± 5.75 µM, an EC50 (HIV-2 ROD; [3]) of 16.2 ± 17.2 µM and an EC50 (HIV-1 IIIB; [3]) greater than 34.8 µM.
